Laboratory results taken from patent publication US11389415B2, “Methods of regulating cannabinoid receptor activity-related disorders and diseases” (The United States of America as represented by the …, priority 2012, dated 2022).
Entries after “also recorded” stand apart in the source; their conditions may differ.

Assays:
[1] = system: U87MG cells; assay: [3H]-Thymidine incorporation in U87MG cells; assay type: cell-based, human; settings: compound alone
Experimental: Maintenance and Treatment of Cell Lines. Human HepG2 hepatocarcinoma cells and human U87MG glioma cells (ATCC, Manassas, Va.) were maintained in EMEM medium supplemented with 1% L-glutamine, 1% sodium pyruvate, 1% penicillin/streptomycin, and 10% FBS (Hyclone, Logan, Utah). The human 1321N1 astrocytoma cells (European Collection of Cell Cultures, Sigma-Aldrich) were cultured in Dulbecco's modified Eagle's medium supplemented with 10% FBS and penicillin/streptomycin. All cell lines were cultured at 37° C. in 5% CO2, and the medium was replaced every 2-3 days.
Cells were seeded in 12-well plates at approximately 50,000 cells/well and incubated at 37° C. After 24 hours, the wells were rinsed with PBS and replaced with serum-free medium containing the appropriate concentration of the test compounds. After another 24-hour incubation at 37° C., 1 μCi of [^3H]-thymidine was added to each well and incubated at 37° C. for 16 hours. [^3H]-Thymidine incorporation into DNA was monitored after the cells were washed twice with PBS and then lysed in 600 μL of 0.1N NaOH for 30 minutes with shaking. The lysate was then mixed with 3 mL of liquid scintillation cocktail (Beckman Coulter, Inc., Brea, Calif.), and radioactivity was measured by liquid scintillation counting using Beckman Coulter LS6000IC Scintillation Counter. Data are shown as CPM incorporated compared to the control cells.

[2] = In vitro metabolic stability, rat liver microsomes; assay type: in vitro ADME; settings: rat liver microsomes and cofactors, 37° C., 0-60 minutes
Experimental: FIG. 10 presents the data from the in vitro metabolic stability study in which MNF was incubated (in duplicate) with active and heat-inactivated human (HLM) and rat (RLM) liver microsomes and cofactors at 37° C. Aliquots were removed at 0, 15, 30 and 60 minutes and the amount of test compound (MNF) remaining at each time point was determined by LC-MS/MS.

[3] = system: rat C6 glioma xenograft; assay: C6 tumor xenograft in mice, tumor growth; assay type: in vivo, mouse
Experimental: C6 tumor xenograft in mice. In order to assess the ability of MNF to induce regression of tumor growth in vivo, rat C6 glioma cells were trypsin-collected at confluency and were used to generate tumor xenografts. Athymic female nude mice (SWISS nu+/nu+) were obtained from Charles Rivers (L'Arbresle, France) and maintained under pathogen-free conditions with a 12 hours light/12 hours dark cycle. Animals were fed ad libitum with normal chow (supplier). Athymic nude mice were inoculated subcutaneously with […] containing 0.5×10^6 C6 glioma cells in the left flank and then were randomly divided into two groups of 10 animals each. Starting 3 days after cell inoculation, mice received daily intraperitoneal injection (10 μl·g-1 body weight) of vehicle or MNF (2 mg·kg-1) in 100 μM ascorbic acid in saline (vehicle) five days a week for 19 days. Animal survival was monitored daily, and tumor size was determined with the use of a caliper to measure the length (a) and width (b) and estimated as 4/3π×rl2×r2, where rl is the smaller and r 2 the larger radius. […] The mice were euthanized by cervical […], and tumor masses were removed, weighed and washed with cold PBS before being snap-frozen in liquid nitrogen. A second set of studies with 8-9 animals in both groups was repeated.

[4] = system: Sox4, Olig1, Galnt3, Cdkn3, Ccna2, Bub1b mRNA; assay: qRT-PCR of selected genes in C6 xenograft tumors; assay type: in vivo, mouse; settings: MNF-treated mice
Experimental: Total RNA extraction, cDNA synthesis and qRT-PCR analysis. Total RNA (including the DNase treatment step) was isolated from frozen tumor tissues using the RNeasy mini kit (Qiagen, Valencia, Calif.). RNA concentration and quality was measured using the NanoDrop spectrophotometer (NanoDrop Technologies, Wilmington, Del.). Subsequently, 2 μg total RNA was reverse-transcribed to cDNA using the qSCRIPT™ cDNA SuperMix (Quanta Biosciences, Gaithersburg, Md.). Quantitative real-time PCR (qRT-PCR) reactions were performed to validate the expression of 6 genes that were selected from the microarray analysis. The reactions were carried out with SYBR® Green PCR master mix on an ABI Prism 7300 sequence detection system (Applied Biosystems) using commercially available target probes for Sox4, Olig1, Galnt3, Cdkn3, Ccna2, and Bub1b (PrimeTime qPCR Assays and Primers, IDT DNA Technologies, Coralville, Iowa). The data was analyzed using the 2-ΔΔCt method with Gapdh and vehicle-treated tumors as internal controls. Controls consisting of reaction mixture without cDNA were negative in all runs.

[5] = system: ERK1/2; assay: ERK1/2 phosphorylation (GPR55 downstream signaling) in PANC-1 cells; assay type: cell-based, human
Experimental: Western blot analysis. For detection of intracellular signaling proteins, cells were lysed in radioimmunoprecipitation buffer containing EGTA and EDTA (Boston BioProducts, Ashland, Mass.). The lysis buffer contained a protease inhibitor cocktail (Sigma-Aldrich) and phosphatase inhibitor cocktail (Calbiochem, San Diego, Calif.). Equivalent amount of proteins (14 and 54 μg/well for PANC-1 and HepG2 cells, respectively) were separated on 4 to 12% precast gels (Invitrogen, Carlsbad, Calif.) using SDS-polyacrylamide gel electrophoresis under reducing conditions and then electrophoretically transferred onto polyvinylidene fluoride membrane (Invitrogen). Western blots were performed according to standard methods, which involved blocking in 5% non-fat milk and incubated with the antibody of interest, followed by incubation with a secondary antibody conjugated with the enzyme horseradish perodixase. […] The quantification of bands was done by volume densitometry by using ImageJ software. […]
Effect of MNF on O-1602-mediated increase in cell signaling. Serum-starved cells were pretreated in the absence or presence of 1 μM MNF for 10 minutes followed by a 10 minute incubation with 0, 2.5 and 10 μM O-1602 or 10% FBS, after which the levels of total ERK2 and phosphorylated forms of ERK1/2 (pErk1/2, Thr202/Tyr204), were determined by Western blotting technique. […]

[6] = target: GPR55 (Homo sapiens, UniProt Q9Y2T6); assay: Cellular uptake of TocriFluor T1117 in HepG2 cells; assay type: cell-based; design: host or cells: HepG2 hepatocarcinoma cells
Chain of GPR55 (Q9Y2T6 whole entry): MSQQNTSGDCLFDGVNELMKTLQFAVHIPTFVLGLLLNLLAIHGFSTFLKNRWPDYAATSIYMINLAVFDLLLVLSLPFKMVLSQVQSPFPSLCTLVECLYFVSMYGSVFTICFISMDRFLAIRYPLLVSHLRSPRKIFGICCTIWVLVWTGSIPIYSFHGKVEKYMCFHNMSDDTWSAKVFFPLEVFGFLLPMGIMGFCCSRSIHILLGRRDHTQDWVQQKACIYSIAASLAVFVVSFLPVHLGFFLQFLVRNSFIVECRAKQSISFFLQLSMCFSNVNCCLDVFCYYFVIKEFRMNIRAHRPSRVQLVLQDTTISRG

COc1ccc(C[C@@H](C)NC[C@H](O)c2cc(O)cc(O)c2)c2ccccc12 [(R,R′)-MNF, (R,R′)-4′-methoxy-1-naphthylfenoterol]
effect on cellular proliferation [1]: potent inhibition of cellular proliferation | metabolic stability, MNF levels [2]: greater decrease in MNF levels | average AUC±SEM (tumor volume over time, FIG. 19B) ([3]; C6 tumor-bearing female nude mice, 2 mg/kg, five days a week for 19 days, n=19 (vehicle 5450±518)): 3217±265 | tumor volume compared with vehicle-treated group ([3]; C6 xenograft in nude mice, 2 mg/kg intraperitoneal): Significant reduction in mean tumor volumes; also recorded: Significant reduction in tumor volume | mRNA expression by quantitative RT-PCR compared to control [4]: decreased the expression of Bub1b, Cdkn3 Ccna2, Olig1, Sox4, and Galnt3 | effect on O-1602-mediated ERK phosphorylation ([5]; PANC-1, 1 μM pretreatment 10 minutes): displayed exquisite sensitivity to MNF with regard to O-1602-mediated ERK phosphorylation | effect on serum-induced ERK phosphorylation ([5]; PANC-1, 1 μM pretreatment, 10% FBS): potently inhibited serum-induced ERK phosphorylation in both cell lines | reduction in T1117 incorporation ([6]; HepG2, MNF alone (1 μM), 10 nM T1117): ~70% | reduction in T1117 incorporation as compared to vehicle-treated cells ([6]; HepG2, MNF with AM251 added either before or after the 30-minutes MNF treatment): ~6.8 fold | T1117 uptake ([6]; HepG2, MNF 1 μM or AM251 10 μM for 1 hour, then T1117 0.1 μM): dramatically reduced
